Measured values taken from patent US20080227766A1, “Synergistic, Silver-Containing Biocide Composition” (THOR GMBH, priority 2005, published 2008).

Experiments:
[1] = test system: Staphylococcus aureus (ATCC 6538); assay: MIC and synergy index (Kull) in Müller-Hinton broth; type: cell-based
Protocol: (§1) The synergism of a combination of silver with 1,2-benzisothiazolin-3-one (BIT) was tested. Silver was used in the form of silver nitrate. […] The test organism used was the gram-negative bacterium Pseudomonas aeruginosa (ATCC 9027). For the test, aqueous mixtures with different concentrations of silver nitrate and BIT were prepared and were tested for their activity on Pseudomonas aeruginosa. The aqueous mixtures further included a Müller-Hinton broth (commercial product “Merck Nr. 10393”) as nutrient medium. The cell density of Pseudomonas aeruginosa was 10^6 microbes/ml.
[…] Each sample was incubated at 120 rpm on an incubation shaker. […] Growth was shown through a clouding of the nutrient medium. In this way, the minimum inhibitory concentrations (MICs) of the two actives, individually and in combination, were ascertained. The MIC is the concentration at which there is no longer any clouding of the nutrient medium.
(§2) The synergism arising was represented numerically by calculation of the synergy index (SI). The calculation was made in accordance with the commonplace method of F. C. Kull et al., Applied Microbiology, vol. 9 (1961), p. 538. There the SI is calculated according to the following formula:
synergy index SI=Qa/QA+Qb/QB.
When this formula is applied to the biocide system BIT+Ag under test here, the parameters in the formula are defined as follows: • Qa=concentration of BIT in the biocide mixture of BIT+Ag • QA=concentration of BIT as a single biocide • Qb=concentration of Ag in the biocide mixture of BIT+Ag • QB=concentration of Ag as a single biocide
If the synergy index has a value of more than 1, this means that antagonism is present. If the synergy index adopts a value of 1, this means that the two biocides have an additive effect.
The experiment from example 2 was repeated in the same way but using the gram-positive test organism Staphylococcus aureus (ATCC 6538) instead of Pseudomonas aeruginosa.
Example 3 was repeated in the same way, but with N-methyl-1,2-benzisothiazolin-3-one (MBIT) as the biocidal component.
Example 3 was repeated, but using N-butyl-1,2-benzisothiazolin-3-one (BBIT) as the biocidal component.

[2] = test system: Pseudomonas aeruginosa (ATCC 9027); assay: as above; type: cell-based; conditions: 72 h/25° C.
Protocol: as §1
The incubation time was 72 h at 25° C. Each sample was incubated at 120 rpm on an incubation shaker. After 72 h the samples were inspected for growth of Pseudomonas aeruginosa. Growth was shown through a clouding of the nutrient medium. In this way, the minimum inhibitory concentrations (MICs) of the two actives, individually and in combination, were ascertained. The MIC is the concentration at which there is no longer any clouding of the nutrient medium.
as §2
synergy index SI=Qa/QA+Qb/QB. […]

Structure (SMILES): [Ag] [Ag, silver]
- MIC at Ag concentration Qb ([1]; 72 h/25° C., Ag in mixture BIT + Ag (or Ag alone)): 19.1 ppm
- MIC at Ag concentration Qb ([1]; 96 h/25° C., Ag in mixture BBIT + Ag (or Ag alone)): 25.4 ppm
- MIC at Ag concentration Qb ([1]; 96 h/25° C., Ag in mixture MBIT + Ag (or Ag alone)): 27 ppm
- MIC at Ag concentration Qb ([2]; Ag (from silver nitrate) in mixture BIT + Ag (or Ag alone)): 25.4 ppm

Structure (SMILES): CCCCn1sc2ccccc2c1=O [BBIT, N-butyl-1,2-benzisothiazolin-3-one]
- MIC at BBIT concentration Qa ([1]; 96 h/25° C., BBIT in mixture BBIT + Ag (or BBIT alone)): 20 ppm

Structure (SMILES): O=c1[nH]sc2ccccc12 [BIT, 1,2-benzisothiazolin-3-one]
- MIC at BIT concentration Qa ([1]; 72 h/25° C., BIT in mixture BIT + Ag (or BIT alone)): 20 ppm
- MIC at BIT concentration Qa ([2]; BIT in mixture BIT + Ag (or BIT alone)): 40 ppm

Structure (SMILES): Cn1sc2ccccc2c1=O [MBIT, N-methyl-1,2-benzisothiazolin-3-one]
- MIC at MBIT concentration Qa ([1]; 96 h/25° C., MBIT in mixture MBIT + Ag (or MBIT alone)): 20 ppm
